The values below come from patent US10988465B2, “CXCR4 inhibitors and uses thereof” (X4 Pharmaceuticals, Inc., priority 2016, dated 2021).

Read-outs that look alike come from different tables or passages of the source.

Data set [1] concerns the target T1, CXCR-4 transfected U87 cell line (U87.CXCR4) (Homo sapiens, UniProt P61073).
T1 construct: expressed in transfected cells; host or cells: U87 (U87.CXCR4)
Briefly: Intracellular CXCL-12-induced calcium mobilization assay (FLIPR). The class given is cell-based. The note with it: U87.CXCR4 cells; CXCL-12 25-50 ng/mL; compound added 15 min before; read-out: IC50 CXCL-12 Ca^2+ flux U87.CXCR4+. Summed up: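 CXCL-12 (25-50 ng/mL) was the stimulus, and the intracellular calcium rise was tracked kinetically by FLIPR at 37 °C. Cells were U87.CXCR4 transfectants pre-loaded 45 min at 37 °C with 4 μM (final) Fluo-2 AM in HEPES-buffered HBSS with 0.2% BSA, pH 7.4.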
Background: A change in cytosolic calcium serves as a functional read-out for many receptors and channels.

A short description of data set [2]: in vitro. The note with it: human, Caco-2, pH 7.4. The procedure, abridged: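 Bidirectional permeability across Caco-2 monolayers in HBSS (pH 7.4) at a test concentration of 10 μM, incubated 0 and 90 min at 37° C (n=2). Monolayer integrity was assessed by TEER and Lucifer yellow. Papp was derived from LC-MS/MS-measured concentrations.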
Data set [3] can be described thus: Rat brain uptake assay: pharmacokinetics and brain penetration after IV-PO administration. The class given is in vivo, male SD rats.
Setting [4] is: brain (brain proteins), read-out: Fu (b) % (fraction of drug unbound to brain proteins).
Setting [5] is: plasma, read-out: Fu (p) % (fraction of drug unbound to plasma proteins).

T1 sequence (P61073 whole entry): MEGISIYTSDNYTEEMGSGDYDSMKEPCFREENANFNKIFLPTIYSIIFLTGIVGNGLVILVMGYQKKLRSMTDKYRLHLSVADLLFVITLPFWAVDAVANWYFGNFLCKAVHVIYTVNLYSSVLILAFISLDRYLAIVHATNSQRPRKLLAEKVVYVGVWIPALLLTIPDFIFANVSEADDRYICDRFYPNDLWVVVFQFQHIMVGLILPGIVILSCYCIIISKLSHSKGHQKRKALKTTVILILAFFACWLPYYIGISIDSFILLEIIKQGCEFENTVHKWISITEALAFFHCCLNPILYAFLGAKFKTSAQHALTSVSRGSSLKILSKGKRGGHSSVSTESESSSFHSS

As to `Cc1cccnc1[C@@H]1CCC[C@H](c2nc3cccc(N4CCN(C)CC4)c3[nH]2)N1C` (racemic) [I-3, 2-((2R,6S)-1-methyl-6-(3-methylpyridin-2-yl)piperidin-2-yl)-7-(4-methylpiperazin-1-yl)-1H-benzo[d]imidazole], in data set [1], the IC50 (in general, the midpoint of a concentration-inhibition curve) fell in the range of 0.01 to 100 nM. The Papp A→B – broadly, the apparent permeability from the apical to the basolateral side of a cell layer – at 90 min, 10 μM in data set [2] fell in the range of 0.1 to 10 ×10⁻⁶ cm/s. The Papp B→A (in general, how fast a substance crosses the layer from the basolateral side) at 90 min, 10 μM in data set [2] was 10 to 30 ×10⁻⁶ cm/s. The fraction unbound (commonly the share of the substance not bound to proteins or other matrix) in data set [3] (setting [4]) was determined as 0.014; in data set [3] (setting [5]), 0.101.
`CN1CCN(c2cccc3nc([C@H]4CCC[C@@H](c5ncccc5Cl)N4)[nH]c23)CC1` (racemic) [I-122]: in data set [1], the IC50 lay in the range of 0.01 to 100 nM. In data set [2], the Papp A→B at 90 min, 10 μM lay within 10 to 30 ×10⁻⁶ cm/s; the basolateral-to-apical permeability (Papp B→A) at 90 min, 10 μM lay within 10 to 30 ×10⁻⁶ cm/s; the efflux ratio (in general, a quotient of directional permeabilities that is used to spot active efflux) at 90 min, 10 μM fell in the range of 0.1 to 10. Besides, the fraction unbound in data set [3] (setting [4]) came to 0.041. For the same compound, the fraction unbound in data set [3] (setting [5]) is 0.251.
